In article PMC11728000, “Antitumor Activity and Multi-Target Mechanism of Phenolic Schiff Bases Bearing Methanesulfonamide Fragments: Cell Cycle Analysis and a Molecular Modeling Study” (International Journal of Molecular Sciences, 2024):
Where two headings read alike, the source gives them in different places.

Key:
SF-295 = test: NCI anticancer screening (SRB), CNS Cancer subpanel; assay type: cell-based, human
K-562 = test: NCI anticancer screening (SRB), Leukemia subpanel; assay type: cell-based, human
U251 = test: NCI anticancer screening (SRB), CNS Cancer subpanel; assay type: cell-based, human
HL-60(TB) [1] = test: NCI anticancer screening (SRB), Leukemia subpanel; assay type: cell-based, human
SF-268 = test: NCI anticancer screening (SRB), CNS Cancer subpanel; assay type: cell-based, human
SF-539 = test: as above; assay type: cell-based, human
NCI-H226 = test: NCI anticancer screening (SRB), Non-Small Cell Lung Cancer subpanel; assay type: cell-based, human
MDA-MB-468 = test: NCI anticancer screening (SRB), Breast Cancer subpanel; assay type: cell-based, human
HS 578T = test: as above; assay type: cell-based, human
HOP-92 = test: NCI anticancer screening (SRB), Non-Small Cell Lung Cancer subpanel; assay type: cell-based, human
KM12 = test: NCI anticancer screening (SRB), Colon Cancer subpanel; assay type: cell-based, human
HCT-116 = test: as above; assay type: cell-based, human
ACHN = test: NCI anticancer screening (SRB), Renal Cancer subpanel; assay type: cell-based, human
A498 = test: as above; assay type: cell-based, human
A549/ATCC = test: NCI anticancer screening (SRB), Non-Small Cell Lung Cancer subpanel; assay type: cell-based, human
CCRF-CEM = test: NCI anticancer screening (SRB), Leukemia subpanel; assay type: cell-based, human
T-47D = test: NCI anticancer screening (SRB), Breast Cancer subpanel; assay type: cell-based, human
HCC-2998 = test: NCI anticancer screening (SRB), Colon Cancer subpanel; assay type: cell-based, human
SK-MEL-5 [2] = test: NCI anticancer screening (SRB), Melanoma subpanel; assay type: cell-based, human
MOLT-4 = test: NCI anticancer screening (SRB), Leukemia subpanel; assay type: cell-based, human
OVCAR-4 = test: NCI anticancer screening (SRB), Ovarian Cancer subpanel; assay type: cell-based, human
SR = test: NCI anticancer screening (SRB), Leukemia subpanel; assay type: cell-based, human
786-0 = test: NCI anticancer screening (SRB), Renal Cancer subpanel; assay type: cell-based, human
HCT-15 = test: NCI anticancer screening (SRB), Colon Cancer subpanel; assay type: cell-based, human
MDA-MB-435 = test: NCI anticancer screening (SRB), Melanoma subpanel; assay type: cell-based, human
OVCAR-5 = test: NCI anticancer screening (SRB), Ovarian Cancer subpanel; assay type: cell-based, human
Bax = test: Apoptotic markers assay, Bax expression in MCF-7 cells; assay type: cell-based, human; settings: MCF-7 cells treated at IC50 concentrations; vs untreated control = 1
Description: (§1) We measured the apoptosis promoter Bax levels, the apoptosis inhibitor Bcl−2, and the apoptosis coordination enzymes caspase-8 and caspase-9 [32].
(§2) The apoptotic marker method was carried out using the reported procedure using MCF-7, the cancer cell line (Supplementary Materials). […]
(cells are Plated […]
in a density of 1.2-1.8 X 10,000 cells/well in a volume of 100 µL complete growth medium + 100 µL of the tested compound per well in a 96-well plate for 24/48 h before the enzyme assay).
8. Evaluation of Bax and Bcl-2 expressions m RNA isolation was carried out using an RNeasy extraction kit, up to 1 X 107 cells. They were disrupted in Buffer RLT and homogenized. Ethanol was added to the lysate to promote the selective binding of RNA to the RNeasy membrane. Then, the sample was applied to the RNeasy […]
Mini spin column. Total RNA bound to the membrane. High-quality RNA was eluted using […]
(1 picture or pasted object on this page, not shown here)

MALME-3M = test: NCI anticancer screening (SRB), Melanoma subpanel; assay type: cell-based, human
SK-MEL-2 = test: NCI anticancer screening (SRB), Melanoma subpanel; assay type: cell-based, human
NCI-H460 = test: NCI anticancer screening (SRB), Non-Small Cell Lung Cancer subpanel; assay type: cell-based, human
caspase-8 = test: Apoptotic markers assay, caspase-8 level in MCF-7 cells; assay type: cell-based, human; settings: MCF-7 cells treated at IC50 concentrations; vs untreated control = 1
Description: as §1, §2
7. Caspase-8 and 9 activation assay
A breast carcinoma (MCF-7) cell line was obtained from ATCC. […]
allowed cells to grow at 37 °C, stimulated with the compounds to be tested for caspase-8 or caspase-9 and lysed with Cell Extraction Buffer. Standard Diluent Buffer was used to dilute the lysate over the range of the assay and measure human active caspase-8 or caspase-9 content. (cells are Plated in a density of 1.2-1.8 X 10,000 cells/well in a volume of 100 µL complete growth medium + 100 µL of the tested compound per well in a 96-well plate for 24/48 h before the enzyme assay).
8. Evaluation of Bax and Bcl-2 expressions m RNA isolation was carried out using an RNeasy extraction kit, up to 1 X 107 cells. They were disrupted in Buffer RLT and homogenized. Ethanol was added to the lysate to promote the selective binding of RNA to the RNeasy membrane. Then, the sample was applied to the RNeasy

HL-60(TB) [3] = system: HL-60(TB); design: method as in https://dtp.cancer.gov/dtpstandard/dwindex/index.jsp; settings: ref https://dtp.cancer.gov/dtpstandard/dwindex/index.jsp; cited from earlier work
RPMI-8226 = system: RPMI-8226; design: method as in https://dtp.cancer.gov/dtpstandard/dwindex/index.jsp; settings: PRMI-8226; ref https://dtp.cancer.gov/dtpstandard/dwindex/index.jsp; cited from earlier work
SK-MEL-5 [4] = system: SK-MEL-5; design: method as in https://dtp.cancer.gov/dtpstandard/dwindex/index.jsp; settings: ref https://dtp.cancer.gov/dtpstandard/dwindex/index.jsp; cited from earlier work
[5] = Homo sapiens, five concentrations

## CCN(CC)c1ccc(C=NNC(=O)c2ccc(NS(C)(=O)=O)cc2)c(O)c1 [Compound 8]
SF-295; 10.0 µM in one dose
  GI%: 90%
SF-295; [5]
  GI50: 517 nM
K-562; 10.0 µM in one dose
  GI%: 86%
K-562; Homo sapiens, K562, five concentrations
  GI50: 492 nM
U251; 10.0 µM in one dose
  GI%: 76%
U251; Homo sapiens, U-251, five concentrations
  GI50: 226 nM
HL-60(TB) [1]; 10.0 µM in one dose
  GI%: 99%
HL-60(TB) [1]; [5]
  GI50: 300 nM
SF-268; 10.0 µM in one dose
  GI%: 77%
SF-268; [5]
  GI50: 252 nM
SF-539; 10.0 µM in one dose
  GI%: 93%
SF-539; [5]
  GI50: 362 nM
NCI-H226; 10.0 µM in one dose
  GI%: 61%
NCI-H226; [5]
  GI50: 986 nM
MDA-MB-468; 10.0 µM in one dose
  GI%: > 100%
MDA-MB-468; [5]
  GI50: 335 nM
HS 578T; 10.0 µM in one dose
  GI%: 44%
HS 578T; [5]
  GI50: 1470 nM
HOP-92; 10.0 µM in one dose
  GI%: 61%
HOP-92; [5]
  GI50: 443 nM
KM12; 10.0 µM in one dose
  GI%: 85%
KM12; [5]
  GI50: 509 nM
HCT-116; 10.0 µM in one dose
  GI%: 78%
HCT-116; Homo sapiens
  GI50: 263 nM
ACHN; 10.0 µM in one dose
  GI%: 84%
ACHN; [5]
  GI50: 513 nM
A498; 10.0 µM in one dose
  GI%: 81%
A498; [5]
  GI50: 2230 nM
A549/ATCC; 10.0 µM in one dose
  GI%: 88%
A549/ATCC; [5]
  GI50: 1340 nM
CCRF-CEM; 10.0 µM in one dose
  GI%: 94%
CCRF-CEM; [5]
  GI50: 177 nM
T-47D; 10.0 µM in one dose
  GI%: 74%
T-47D; Homo sapiens, T47D, five concentrations
  GI50: 382 nM
HCC-2998; 10.0 µM in one dose
  GI%: 62%
HCC-2998; [5]
  GI50: 356 nM
SK-MEL-5 [2]; 10.0 µM in one dose
  GI%: 100%
SK-MEL-5 [2]; [5]
  GI50: 1130 nM
MOLT-4; 10.0 µM in one dose
  GI%: 90%
MOLT-4; [5]
  GI50: 372 nM
OVCAR-4; 10.0 µM in one dose
  GI%: 69%
OVCAR-4; [5]
  GI50: 388 nM
SR; 10.0 µM in one dose
  GI%: 89%
SR; [5]
  GI50: 141 nM
786-0; 10.0 µM in one dose
  GI%: 98%
786-0; [5]
  GI50: 358 nM
HCT-15; 10.0 µM in one dose
  GI%: 80%
HCT-15; [5]
  GI50: 358 nM
MDA-MB-435; 10.0 µM in one dose
  GI%: 71%
MDA-MB-435; [5]
  GI50: 558 nM
OVCAR-5; 10.0 µM in one dose
  GI%: 54%
OVCAR-5; [5]
  GI50: 1890 nM
Bax
  Bax, Gene Expression (Fold Change): 5.456 fold change
MALME-3M; 10.0 µM in one dose
  GI%: 96%
MALME-3M; [5]
  GI50: 855 nM
SK-MEL-2; 10.0 µM in one dose
  GI%: 59%
SK-MEL-2; [5]
  GI50: 749 nM
NCI-H460; 10.0 µM in one dose
  GI%: 97%
NCI-H460; [5]
  GI50: 475 nM
caspase-8
  Casp8, Gene Expression (Fold Change): 6.456 fold change

## C#Cc1cccc(Nc2ncnc3cc(OCCOC)c(OCCOC)cc23)c1 [Erlotinib, erlotinib]
HL-60(TB) [3]
  GI50: 25100 nM
RPMI-8226
  GI50: 25100 nM

## COc1cc2ncnc(Nc3ccc(F)c(Cl)c3)c2cc1OCCCN1CCOCC1 [Gefitinib, gefitinib]
SK-MEL-5 [4]
  GI50: 3160 nM
